# Source: patent US20180284095A1, “BIOMARKERS ASSOCIATED WITH LSD1 INHIBITORS AND USES THEREOF” (Oryzon Genomics, S.A., priority 2015, published 2018)
# Columns and labels:
# [1] = tested on: S100A9; assay: Microarray gene expression, hippocampus of SAMP8 mice (Example 3); format: in vivo, mouse; settings: for Hybridization signal sample_Cy5 S100A9 / log2 (sample/control) S100A9: SAMP8 female pool
# Protocol: (§1) Total RNA was extracted from samples using the RNeasy extraction kit (Qiagen). The quality and concentration of the RNA was analyzed using the Agilent 2100 bioanalyzer and NanoDrop™ ND-1000 (Thermo Scientific). Samples with RNA integrity number (RIN)<6.0 were discarded. Total RNA (0.5 μg) amplification and labelling with Cy3 or Cy5 was carried out using the Eberwein mRNA amplification procedure (Van Gelder et al, Proc Natl Acad Sci USA 1990, 87:1663-1667) employing the MessageAmp™ aRNA amplification kit from Ambion (Applied Biosystems) following the manufacturer's instructions with minor modifications. As hybridization controls, plant mRNAs were transcribed from a plasmid containing the Zea mays Xet (xyloglucan endo-transglycosylase) cDNA and from a plasmid containing the Zea mays Zmmyb42 cDNA, independently prepared Cy3 and Cy5 labelled aRNA from these two RNAs using the Eberwein mRNA amplification procedure (as disclosed in Cerdà et al, Gen Comp Endocrinol 2008, 156:470-481).
# (§2) The Cy3- and Cy5-labelled cRNAs and spikes were combined and hybridized to the microarray described in Example 2.6 for 17 h at 60° C. using Agilent's gaskets G2534-60002, G2534A hybridization chambers and DNA Hybridization Oven G2545A, according to the manufacturer's instructions. More specifically, equal amounts of Cy3 and Cy5 labeled Xet aRNA as well as equal amounts of Cy3 and Cy5 labeled Zmmyb42 aRNA were spiked into each mixture hybridized to the array. Arrays were washed and raw data were obtained using Agilent's DNA Microarray Scanner G2505B and Feature Extraction software (v10.1). The raw fluorescence intensity data were processed using applicant's proprietary software, and consists in the following operations:
# (§3) Data normalization was carried out by an improved version of the nonlinear Q-splines normalization method (Workman et al., Genome Biol 2002, 3(9):research0048.1-0048.16). Normalization results were presented graphically as MA plots, as first described by Dudoit et al (Dudoit et al, Statistica Sinica, 2002, 12:111-139). Each point corresponds to a probe of the DNA array. M values (vertical axis) are the log-differential expression ratios. A values (horizontal axis) are the log-intensities of the spots. M and A are calculated from the Cy5 and Cy3 intensity values as of each spot. The DNA Array data is normalized using an improved version of non-linear Q-Splines normalization described by Workman et al., Genome Biol 2002, 3(9):research0048.1-0048.16. This process is useful to correct the deviation of the M values from the statistical assumption that most of the spots have M=0 in MA plots. The method allows the adjustment of all M values to form a cloud centered at M=0 in all intensity ranges. The data used to calculate the normalization fitting curve is the totality of the raw measurement dataset, excluding the signals for the probes for the spiked-in plant RNA controls and negative controls. In order to be able to normalize properly the data among all the experiments, the probe-set must include an important group of genes that should have no change (M=0) in the experiment. The normalization function is then applied to all the data, including controls.
# (§4) Normalized and log-transformed data were used to calculate log 2 (sample/control) and Fold Change (FC) values. No background subtraction was applied to the signal intensity values during data processing, permitting robust selection of differentially expressed genes with low expression levels at the cost of potential sub-estimation of change when intensity levels are close to the array background level.
# (§5) The technical replicate analysis is the statistical processing of the microarray data. Replicates were calculated to measure oligo replicates on an array or between replicates of experiments on different arrays (i.e. hybridization of the same sample). […]
# [2] = tested on: S100A8; assay: as above; format: in vivo, mouse; settings: for Hybridization signal sample_Cy5 S100A8 / log2 (sample/control) S100A8: SAMP8 female pool
# Protocol: as §1, §2, §3, §4, §5
# [3] = SAMP8 females, treatment vs vehicle
substance,measurement,setting,value
"(−) 5-((((trans)-2-(4-(benzyloxy)phenyl)cyclopropyl)amino)methyl)-1,3,4-oxadiazol-2-amine [Compound 1]",Hybridization signal sample_Cy5 S100A9,[1]; HD 3.2 mg/kg/day,73.2282
same,log2 (sample/control) S100A9,[1]; HD 3.2 mg/kg/day vs SAMP8 VEH,−0.7647
same,Hybridization signal sample_Cy5 S100A9,[1]; LD 0.96 mg/kg/day,66.4843
same,log2 (sample/control) S100A9,[1]; LD 0.96 mg/kg/day vs SAMP8 VEH,−0.8381
same,S100A9 expression (microarray),[1]; [3],down-regulated
same,Hybridization signal sample_Cy5 S100A8,[2]; HD 3.2 mg/kg/day,77.0786
same,log2 (sample/control) S100A8,[2]; HD 3.2 mg/kg/day vs SAMP8 VEH,−0.1813
same,Hybridization signal sample_Cy5 S100A8,[2]; LD 0.96 mg/kg/day,70.7119
same,log2 (sample/control) S100A8,[2]; LD 0.96 mg/kg/day vs SAMP8 VEH,−0.2255
same,S100A8 expression (microarray),[2]; [3],down-regulated
